In patent publication EP0139627A1, “Process for the preparation of 5,10-dihydro-1H-dibenzo [B,E] [1,4] diazepin-11-ones substituted in position 5” (ARZNEIMITTELWERK DRESDEN GmbH, priority 1983, dated 1985):
Like-named read-outs stand apart in the source and are kept apart here.

How the values were obtained:
[1] = test system: streßinduzierten Magenulzera; assay: Inhibition of stress-induced gastric ulcers (immobilisation ulcer, method of Brodie); type: in vivo, Ratten; details: Rattus norvegicus, read-out: Immobilisationsulkus ED50
Excerpt: Die Hemmwirkung auf die Bildung von streßinduzierten Magenulzera wurde nach der Methode von D.A.Brodie, Gastroenterolody, 38 (1960), 50, an weiblichen Ratten im Gewicht von 150 - 180 Gramm vom VEB Versuchstierproduktion Schönwalde bestimmt. Die Nahrungskarenz vor Versuchsbeginn betrug 48 Stunden, bei Wasser ad libitum. Die Testsubstanzen wurden unmittelbar vor Versuchsbeginn oral, mittels Schlundsonde appliziert. Die Immobilisation erfolgte mittels Gipsbinden über 18 Stunden. Während der Versuchsdauer war die Raumtemperatur konstant 20° C. Nach Versuchsende wurden die Tiere durch Äther getötet, die Mägen entnommen, entlang der kleinen Kurvatur aufgeschnitten und die Drüsenschleimhautdefekte nach Zahl und Länge im Vergleich zur Kontrollgruppe beurteilt. Für die statistische Berechnung diente die Probit-Regressions-Analyse.

Größe der Pupille [2] = details: mouse, in vivo, po
Excerpt: (§1) Die Wirkung der Substanzen auf die Größe der Pupille wurde an weiblichen Mäusen im Gewicht zwischen 18 und 23 Gramm nach der Versuchsordnung von R.Pulewka, Exp.Pathol. […] 30, 60, 90, 120, 180 und 240 Minuten nach oraler Präparatgabe wurde die Pupillenweite bestimmt und die x-fache Veränderung zum Ausgangswert berechnet. Als ED3-fach gilt die Dosis, bei der eine dreifache Pupillenerweiterung im Vergleich zum Ausgangswert auftritt.

[3] = test system: phenylbutazoninduzierte Magenulzera; assay: Inhibition of phenylbutazone-induced gastric ulcers (model of Beattie et al.); type: in vivo, Ratten; details: Rattus norvegicus, 48 h; female rats, oral dose half an hour before each s.c. injection of 150 mg/kg Phenylbutazon on two days; read-out: Phenylbutazonulkus ED50
Procedure: Die Hemmwirkung der Verbindungen auf phenylbutazoninduzierte Magenulzera wurde in Anlehnung an das Modell von Beattie und Mitarbeiter, Arzneimittelforschung, 29, (1979), 1812 ermittelt. Für die Untersuchung kamen weibliche Ratten der hauseigenen Zucht im Gewicht von 150 - 180 Gramm zur Anwendung.
Die Nahrungskarenz vor Versuchsbeginn betrug 24 Stunden, bei Wasser ad libitum. Während des Versuchs wurden die Tiere im Klimaraum bei einer Temperatur zwischen 22° C und 23° C gehalten. Die Ratten erhielten zwei Tage hintereinander jeweils 7 Uhr morgens eine s.c. Injektion von 150 mg/kg Phenylbutazon und die Tötung erfolgte sechs Stunden nach der letzten Injektion durch Nackenschlag. Die herauspräparierten Mägen wurden entlang der kleinen Kurvatur aufgeschnitten und die Schleimhautdefekte nach Zahl und Länge beurteilt. Die Applikation der Prüfsubstanzen erfolgte oral, eine halbe Stunde vor jeder Phenylbutazoninjektion.

in vivo = details: mouse, male and female mice, oral, read-out: akute Toxizität LD50
Excerpt: Die akute Toxizität wurde an jeweils 5 männlichen und 5 weiblichen Mäusen im Gewicht von 18 - 23 Gramm pro dosi bestimmt. Die Applikation der Prüfsubstanzen erfolgte oral. Die Berechnung der LD50 wurde nach Litchfield und Wilcoxon durchgeführt.

Größe der Pupille [4] = assay: Effect on pupil size (mydriasis, method of Pulewka); details: female mice, oral; dose that widens the pupil three-fold versus baseline
Excerpt: as §1

[5] = female rats, oral dose immediately before start, immobilisation for 18 hours, probit regression analysis

Row | SMILES | ED50 ([1]; po, 18 h) [mg/kg] | Pupillomotorik ED3-fach (Größe der Pupille [2]) | ED50 [3] [mg/kg] | ED50 [1, 5] [mg/kg] | LD50 (in vivo) [mg/kg] | Pupillomotorik ED3-fach (Größe der Pupille [4]) [mg/kg]
1 | CN1C2CCC1CC(OC(=O)C(CO)c1ccccc1)C2 (racemic) [Atropin, reference compound] | 0.6 | 0,8 mg/kg |  |  |  | 
2 | CN1C(=O)c2ccccc2N(C(=O)CN2CCN(C(=O)c3ccco3)CC2)c2ccc(Cl)cc21 [D, 8-Chlor-5, 10-dihydro-5-(2-{4-[(2-furanyl)-carbonyl]-1-piperazinyl}-acetyl)-10-methyl-11H-dibenzolbenzo[b,e][1,4]-diazepin-11-on] |  | 250 mg/kg | 36 | 26 | 1600 | 
3 | CN1CCN(CC(=O)N2c3ccccc3C(=O)Nc3cccnc32)CC1 [Pi renzepin, Pirenzepin, reference compound] |  |  | 18 | 11 |  | 30
4 | O=C1Nc2ccccc2N(C(=O)CN2CCN(C(=O)c3ccco3)CC2)c2ccccc21 [C, 5,10-Dihydro-5-(2-{4-[(2-furanyl)-carbonyl] -1-piperazinyl}-acetyl)-11H-dibenzo[b,e] [1,4]diazepin-11-on] |  | 67 mg/kg | 20 | 14 | 2000 | 
5 | O=C1Nc2ccccc2N(C(=O)CN(CCO)CCO)c2ccccc21 [B, 5,10-Dihydro-5-[bis-(2-hydroxyäthyl) -aminoacetyl]-11H-dibenzo[b,e][1,4] diazepin-11-on] |  | 4 mg/kg | 1.6 | 1 | 2000 | 
6 | CN1C(=O)c2ccccc2N(C(=O)CN(CCO)CCO)c2ccccc21 [E, 5,10-Dihydro-10-methyl-5-[bis-{2-hydroxyäthyl)-amino-acetyl]-11H-dibenzo[b,e] [1,4]diazepin-11-on] |  | 95 mg/kg | 22 | 27 | 1000 | 
7 | O=C1Nc2cc(Cl)ccc2N(C(=O)CN(CCO)CCO)c2ccccc21 [A, 8-Chlor-5,10-dihydro-5-[bis-(2-hydroxyäthyl)amino-acetyl]-11H-dibenzo[b,e] [1,4]diazepin-11-on] |  | 30 mg/kg | 5 | 6 | 2000 | 
